Literature values as cited in patent US20100029716A1, “NOVEL 1,2,3,4- TETRAHYDROQUINOLINE DERIVATIVES” (CONCERT PHARMACEUTICALS, INC., priority 2006, published 2010).

Tests used:
[1] = healthy volunteers, 14-day dosing period
[2] = system: atherosclerotic lesions; details: rabbit model of atherosclerosis
[3] = biological target: T1, human CETP (Homo sapiens, UniProt P11597); details: transgenic hCETP mice
T1 construct: host or cells: transgenic mice expressing human CETP and apolipoprotein A1 (hCETP mice)
T1 sequence (P11597 18-493): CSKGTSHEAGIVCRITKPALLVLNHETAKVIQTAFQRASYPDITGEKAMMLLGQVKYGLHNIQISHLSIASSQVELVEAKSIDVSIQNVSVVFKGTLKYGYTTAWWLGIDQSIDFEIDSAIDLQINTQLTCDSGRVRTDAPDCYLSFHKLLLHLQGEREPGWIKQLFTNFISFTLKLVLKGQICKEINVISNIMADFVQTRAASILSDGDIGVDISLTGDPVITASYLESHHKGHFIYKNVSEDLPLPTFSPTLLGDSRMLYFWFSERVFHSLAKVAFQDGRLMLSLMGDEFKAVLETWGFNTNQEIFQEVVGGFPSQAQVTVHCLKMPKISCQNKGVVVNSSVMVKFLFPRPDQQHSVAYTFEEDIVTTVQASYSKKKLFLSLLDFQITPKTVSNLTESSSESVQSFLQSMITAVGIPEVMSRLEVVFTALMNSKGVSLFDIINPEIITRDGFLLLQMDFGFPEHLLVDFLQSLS

[4] = conventional formulations

- rate of cholesterol oleate transfer from LDL donor particles to HDL [3]: decreased rates
- HDL cholesterol ([3]; multiple dosing): increased HDL cholesterol
- aqueous solubility: poor
- oral bioavailability [4]: low
SMILES: CCOC(=O)N1c2ccc(C(F)(F)F)cc2[C@@H](N(Cc2cc(C(F)(F)F)cc(C(F)(F)F)c2)C(=O)OC)C[C@H]1CC [Compound 1, (2R,4S)-ethyl 4-((3,5-bis(trifluoromethyl)benzyl)-(methoxycarbonyl)amino)-2-ethyl-6-(trifluoromethyl)-3,4-dihydroquinoline-1(2H)-carboxylate]
- increase of HDL cholesterol levels [1]: up to 91%
- reduction of LDL cholesterol [1]: up to 42%
- formation of atherosclerotic lesions [2]: reduce the formation of atherosclerotic lesions
